Where a name gives a salt, the structure may show the parent alone.
system: mice; assay: Neuropharmacological Assay (SmartCube); assay type: in vivo; settings: i.p. 15 min before behavioral test; 3 doses, most efficacious dose(s) presented

Row | Compound | AD: ADHD (probability of class match) | AG: analgesic (probability of class match) | AX: anxiolytic (probability of class match) | CE: cognitive enhancer (probability of class match) | DP: anti-depressant (probability of class match) | HA: hallucinogen (probability of class match) | MS: mood stabilizer (probability of class match) | PS: anti-psychotic (probability of class match) | SD: sedative hypnotic (probability of class match) | UN: uncharacterized CNS activity (probability of class match)
1 | CN(CC1OCCn2nc3ccccc3c21)C1CC1 (stereo not drawn) [Compound 22, N-((3,4-dihydro-1H-[1,4]oxazino[4,3-b]indazol-1-yl)methyl)-N-methylcyclopropanamine hydrogen chloride salt] | ++ (5%≦ ++ <25%) | + (LOQ≦ + <5%) | ++ (5%≦ ++ <25%) | + (LOQ≦ + <5%) | ++++ (50%≦ ++++) | ++ (5%≦ ++ <25%) | + (LOQ≦ + <5%) | + (LOQ≦ + <5%) | + (LOQ≦ + <5%) | ++ (5%≦ ++ <25%)
2 | CN1CCC2(C1)OCCn1nc3ccccc3c12.Cl (stereo not drawn) [Compound 23, 1′-methyl-3,4-dihydrospiro[[1,4]oxazino[4,3-b]indazole-1,3′-pyrrolidin]-1′-ium chloride] | + (LOQ≦ + <5%) | ++ (5%≦ ++ <25%) | ++++ (50%≦ ++++) | ++ (5%≦ ++ <25%) | ++ (5%≦ ++ <25%) | + (LOQ≦ + <5%) | + (LOQ≦ + <5%) | + (LOQ≦ + <5%) | + (LOQ≦ + <5%) | + (LOQ≦ + <5%)
3 | CN1CCC2(CC1)OCCn1nc3ccccc3c12.Cl [Compound 24, 1′-methyl-3,4-dihydrospiro[[1,4]oxazino[4,3-b]indazole-1,4′-piperidin]-1′-ium chloride] | + (LOQ≦ + <5%) | ++ (5%≦ ++ <25%) | ++ (5%≦ ++ <25%) | ++ (5%≦ ++ <25%) | ++ (5%≦ ++ <25%) | + (LOQ≦ + <5%) | + (LOQ≦ + <5%) | ++ (5%≦ ++ <25%) | + (LOQ≦ + <5%) | + (LOQ≦ + <5%)
4 | CN1CCO[C@@H]([C@@H]2OCCn3nc4ccccc4c32)C1 [Compound 25, (2R)-2-((R)-3,4-dihydro-1H-[1,4]oxazino[4,3-b]indazol-1-yl)-4-methylmorpholin-4-ium chloride] | ++ (5%≦ ++ <25%) | ++ (5%≦ ++ <25%) | ++ (5%≦ ++ <25%) | + (LOQ≦ + <5%) | ++ (5%≦ ++ <25%) | + (LOQ≦ + <5%) | + (LOQ≦ + <5%) | + (LOQ≦ + <5%) | + (LOQ≦ + <5%) | + (LOQ≦ + <5%)
5 | CN1CCO[C@@H]([C@H]2OCCn3nc4ccccc4c32)C1 [Compound 26, (2R)-2-((S)-3,4-dihydro-1H-[1,4]oxazino[4,3-b]indazol-1-yl)-4-methylmorpholin-4-ium chloride] | + (LOQ≦ + <5%) | ++ (5%≦ ++ <25%) | + (LOQ≦ + <5%) | + (LOQ≦ + <5%) | ++ (5%≦ ++ <25%) | + (LOQ≦ + <5%) | + (LOQ≦ + <5%) | + (LOQ≦ + <5%) | + (LOQ≦ + <5%) | + (LOQ≦ + <5%)
6 | CC(C)N(C)CC1OCCn2nc3ccccc3c21.Cl (stereo not drawn) [Compound 27, N-((3,4-dihydro-1H-[1,4]oxazino[4,3-b]indazol-1-yl)methyl)-N-methylpropan-2-aminium chloride] | + (LOQ≦ + <5%) | ++ (5%≦ ++ <25%) | + (LOQ≦ + <5%) | + (LOQ≦ + <5%) | ++++ (50%≦ ++++) | + (LOQ≦ + <5%) | + (LOQ≦ + <5%) | + (LOQ≦ + <5%) | + (LOQ≦ + <5%) | + (LOQ≦ + <5%)
7 | CCN(C)CC1OCCn2nc3ccccc3c21.Cl (stereo not drawn) [Compound 28, N-((3,4-dihydro-1H-[1,4]oxazino[4,3-b]indazol-1-yl)methyl)-N-methylethanaminium chloride] | + (LOQ≦ + <5%) | + (LOQ≦ + <5%) | ++ (5%≦ ++ <25%) | ++ (5%≦ ++ <25%) | ++++ (50%≦ ++++) | ++ (5%≦ ++ <25%) | + (LOQ≦ + <5%) | + (LOQ≦ + <5%) | + (LOQ≦ + <5%) | ++ (5%≦ ++ <25%)
8 | CN(CC1OCCn2nc3ccccc3c21)C1CCC1.Cl (stereo not drawn) [Compound 29, N-((3,4-dihydro-1H-[1,4]oxazino[4,3-b]indazol-1-yl)methyl)-N-methylcyclobutanaminium chloride] | + (LOQ≦ + <5%) | + (LOQ≦ + <5%) | ++ (5%≦ ++ <25%) | ++ (5%≦ ++ <25%) | +++ (25%≦ +++ <50%) | ++ (5%≦ ++ <25%) | + (LOQ≦ + <5%) | + (LOQ≦ + <5%) | + (LOQ≦ + <5%) | + (LOQ≦ + <5%)
9 | c1ccc2c3n(nc2c1)CCOC3C1CCNCC1 (stereo not drawn) [Compound 35, 4-(3,4-dihydro-1H-[1,4]oxazino[4,3-b]indazol-1-yl)piperidin-1-ium chloride] | + (LOQ≦ + <5%) | + (LOQ≦ + <5%) | + (LOQ≦ + <5%) | + (LOQ≦ + <5%) | + (LOQ≦ + <5%) | + (LOQ≦ + <5%) | + (LOQ≦ + <5%) | + (LOQ≦ + <5%) | + (LOQ≦ + <5%) | + (LOQ≦ + <5%)
10 | c1ccc2c3n(nc2c1)CCOC31CCNCC1 [Compound 36, 3′,4′-dihydrospiro[piperidine-4,1′-[1,4]oxazino[4,3-b]indazol]-1-ium chloride] | + (LOQ≦ + <5%) | ++ (5%≦ ++ <25%) | ++ (5%≦ ++ <25%) | ++ (5%≦ ++ <25%) | +++ (25%≦ +++ <50%) | + (LOQ≦ + <5%) | + (LOQ≦ + <5%) | ++ (5%≦ ++ <25%) | ++ (5%≦ ++ <25%) | ++ (5%≦ ++ <25%)
11 | Cl.c1ccc2c3n(nc2c1)CCOC31CN2CCC1C2 (stereo not drawn) [Compound 37, 3′,4′-dihydro-4-azaspiro[bicyclo[2.2.1]heptane-2,1′-[1,4]oxazino[4,3-b]indazol]-4-ium chloride] | + (LOQ≦ + <5%) | ++ (5%≦ ++ <25%) | ++ (5%≦ ++ <25%) | ++ (5%≦ ++ <25%) | ++ (5%≦ ++ <25%) | + (LOQ≦ + <5%) | + (LOQ≦ + <5%) | ++ (5%≦ ++ <25%) | ++ (5%≦ ++ <25%) | +++ (25%≦ +++ <50%)
12 | Cl.c1ccc2c3n(nc2c1)CCOC3[C@H]1CCCNC1 (stereo partly drawn) [Compound 38, (3S)-3-(3,4-dihydro-1H-[1,4]oxazino[4,3-b]indazol-1-yl)piperidin-1-ium] | + (LOQ≦ + <5%) | ++ (5%≦ ++ <25%) | ++ (5%≦ ++ <25%) | + (LOQ≦ + <5%) | + (LOQ≦ + <5%) | + (LOQ≦ + <5%) | ++ (5%≦ ++ <25%) | ++ (5%≦ ++ <25%) | + (LOQ≦ + <5%) | + (LOQ≦ + <5%)

same assay, conditions: i.p. 15 min before behavioral test; 3 doses, most efficacious dose(s) presented

Row | Compound | XG: anxiogenic (probability of class match)
13 | CN(CC1OCCn2nc3ccccc3c21)C1CC1 (stereo not drawn) [Compound 22, N-((3,4-dihydro-1H-[1,4]oxazino[4,3-b]indazol-1-yl)methyl)-N-methylcyclopropanamine hydrogen chloride salt] | + (LOQ≦ + <5%)
14 | CN1CCC2(C1)OCCn1nc3ccccc3c12.Cl (stereo not drawn) [Compound 23, 1′-methyl-3,4-dihydrospiro[[1,4]oxazino[4,3-b]indazole-1,3′-pyrrolidin]-1′-ium chloride] | + (LOQ≦ + <5%)
15 | CN1CCC2(CC1)OCCn1nc3ccccc3c12.Cl [Compound 24, 1′-methyl-3,4-dihydrospiro[[1,4]oxazino[4,3-b]indazole-1,4′-piperidin]-1′-ium chloride] | + (LOQ≦ + <5%)
16 | CN1CCO[C@@H]([C@@H]2OCCn3nc4ccccc4c32)C1 [Compound 25, (2R)-2-((R)-3,4-dihydro-1H-[1,4]oxazino[4,3-b]indazol-1-yl)-4-methylmorpholin-4-ium chloride] | + (LOQ≦ + <5%)
17 | CN1CCO[C@@H]([C@H]2OCCn3nc4ccccc4c32)C1 [Compound 26, (2R)-2-((S)-3,4-dihydro-1H-[1,4]oxazino[4,3-b]indazol-1-yl)-4-methylmorpholin-4-ium chloride] | + (LOQ≦ + <5%)
18 | CC(C)N(C)CC1OCCn2nc3ccccc3c21.Cl (stereo not drawn) [Compound 27, N-((3,4-dihydro-1H-[1,4]oxazino[4,3-b]indazol-1-yl)methyl)-N-methylpropan-2-aminium chloride] | + (LOQ≦ + <5%)
19 | CCN(C)CC1OCCn2nc3ccccc3c21.Cl (stereo not drawn) [Compound 28, N-((3,4-dihydro-1H-[1,4]oxazino[4,3-b]indazol-1-yl)methyl)-N-methylethanaminium chloride] | + (LOQ≦ + <5%)
20 | CN(CC1OCCn2nc3ccccc3c21)C1CCC1.Cl (stereo not drawn) [Compound 29, N-((3,4-dihydro-1H-[1,4]oxazino[4,3-b]indazol-1-yl)methyl)-N-methylcyclobutanaminium chloride] | + (LOQ≦ + <5%)
21 | c1ccc2c3n(nc2c1)CCOC3C1CCNCC1 (stereo not drawn) [Compound 35, 4-(3,4-dihydro-1H-[1,4]oxazino[4,3-b]indazol-1-yl)piperidin-1-ium chloride] | + (LOQ≦ + <5%)
22 | c1ccc2c3n(nc2c1)CCOC31CCNCC1 [Compound 36, 3′,4′-dihydrospiro[piperidine-4,1′-[1,4]oxazino[4,3-b]indazol]-1-ium chloride] | + (LOQ≦ + <5%)
23 | Cl.c1ccc2c3n(nc2c1)CCOC31CN2CCC1C2 (stereo not drawn) [Compound 37, 3′,4′-dihydro-4-azaspiro[bicyclo[2.2.1]heptane-2,1′-[1,4]oxazino[4,3-b]indazol]-4-ium chloride] | + (LOQ≦ + <5%)
24 | Cl.c1ccc2c3n(nc2c1)CCOC3[C@H]1CCCNC1 (stereo partly drawn) [Compound 38, (3S)-3-(3,4-dihydro-1H-[1,4]oxazino[4,3-b]indazol-1-yl)piperidin-1-ium] | + (LOQ≦ + <5%)

Source: patent publication US9758529B2, “Fused dihydro-4H-pyrazolo[5,1-C][1,4]oxazinyl compounds and analogs for treating CNS disorders” (Sunovion Pharmaceuticals Inc., priority 2015, dated 2017)
